According to PubChem BioAssay (NCI):
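48-hour exposure; five concentrations; linearly interpolated endpoints. GI50 marks 50% less growth. The concentration for full growth arrest is given as TGI.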

Assays:
Assay in all cases: DTP human tumour cell line panel, 48 h
[1] = system: SF-295 CNS
[2] = system: COLO 205 colon
[3] = system: DU-145 prostate
[4] = system: TK-10 renal
[5] = system: DLD-1 colon
[6] = system: PC-3 prostate
[7] = system: HL-60(TB) leukemia
[8] = system: HCT-15 colon
[9] = system: MALME-3M melanoma
[10] = system: M19-MEL melanoma

| SMILES | TGI [1] [µM] | TGI [2] [µM] | TGI [3] [µM] | TGI [4] [µM] | TGI [5] [µM] | TGI [6] [µM] | TGI [7] [µM] | TGI [8] [µM] | TGI [9] [µM] | TGI [10] [µM] | GI50 [1] [µM] | GI50 [2] [µM] | GI50 [4] [µM] | GI50 [5] [µM] | GI50 [7] [µM] | GI50 [8] [µM] | GI50 [9] [µM] | GI50 [10] [µM] |
| --- | --- | --- | --- | --- | --- | --- | --- | --- | --- | --- | --- | --- | --- | --- | --- | --- | --- | --- |
| Cn1c2ccccc2c2cc(-c3ccccc3)c3c(c21)C(=O)C=CC3=O | 62.4 | 35.1 | > 100 | 32 | 27.7 | 34.8 | 42.3 | 42.1 | 40.2 | 46.6 |  |  |  |  |  |  |  |  |
| O=C1c2c(c3c4ccccc4n4c3c3c2c2ccccc2n3C/C=C\C4)C(=O)N1Cc1ccccc1 | > 100 | > 100 |  | > 100 | > 100 |  | > 100 | > 100 | > 100 | > 100 |  |  |  |  |  |  |  |  |
| CC1=C(C(=O)Nc2ccccc2C)C(c2ccc(N(C)C)cc2)C(C(=O)Nc2ccccc2C)=C(C)N1 | > 100 | > 100 |  | > 100 | > 100 |  | 53.8 | > 100 | > 100 | > 100 |  |  |  |  |  |  |  |  |
| CCCNC(=O)c1cc2ccccc2cc1C(=O)OC | > 100 | > 100 |  | > 100 | > 100 |  | > 100 | > 100 | > 100 | > 100 |  |  |  |  |  |  |  |  |
| CCOC(=O)CNC(SC)=C(C#N)C#N | > 100 | > 100 |  | > 100 | > 100 |  | > 100 | > 100 | > 100 | > 100 |  |  |  |  |  |  |  |  |
| O=C1C2Cc3ccccc3CN2C(=O)N1CN1CCN(CN2C(=O)C3Cc4ccccc4CN3C2=O)CC1 (centres undefined) | > 100 | > 100 |  | > 100 | > 100 |  | > 100 | > 100 | > 100 | > 100 |  |  |  |  |  |  |  |  |
| CC1SC2=NC3=C(c4ccccc4C3=O)C(c3ccc(Br)cc3)N2C1=O (centres undefined) | > 100 | > 100 |  | > 100 | > 100 |  | 62.8 | > 100 | > 100 | > 100 |  |  |  |  |  |  |  |  |
| CCC[CH2][Sn]1([CH2]CCC)[O]C(=O)C[S]1 | 13 | 4.11 |  | 2.92 | 2.78 |  | 4.66 | 3.18 | 2.52 | 7.75 | 3.61 | 1.75 | 1.55 | 1.29 | 1.02 | 1.46 | 1.14 | 1.9 |
